Reference: patent publication US11453677B2 (priority 2016, dated 2022)

Key:
Experiment in all cases: cells
Assay type in all cases: cell-based
[1] = system: influenza virus minigenome (PB2, PB1, PA, NP) RNP_Hubei in 293T cells; conditions: unidentified influenza virus, HEK-293T, 48 h, read-out: RNP_Hubei EC50
[2] = system: influenza A virus minigenome (PB2, PB1, PA, NP) RNP_Alaska in 293T cells; conditions: HEK-293T, 48 h, read-out: RNP_Alaska EC50
[3] = system: influenza A virus minigenome (PB2, PB1, PA, NP) RNP_CAL in 293T cells; conditions: HEK-293T, 48 h, read-out: RNP_CAL_EC50

Row | SMILES | EC50 [1] [µM] | EC50 [2] [µM] | EC50 [3] [µM]
1 | Cc1cnc2n1C[C@H](C(c1ccccc1)c1ccccc1)n1ccc(=O)c(O)c1-2 [Example 13, (S)-6-benzhydryl-11-hydroxy-3-methyl-5H-imidazo[1,2-a]pyrido[2,1-c]pyrazin-10(6H)-one] | 0.3 | 0.57 | 0.31
2 | O=C(NC1CC1)c1cnc2n1C[C@H](C(c1ccccc1)c1ccccc1)n1ccc(=O)c(O)c1-2 [Example 70, (S)-6-benzhydryl-N-cyclopropyl-11-hydroxy-10-oxo-5,6-dihydro-10H-imidazo[1,2-a]pyrido[2,1-c]pyrazine-3-carboxamide] | 12.3 | 6.4 | 1.7
3 | CC(C)CC(=O)Oc1c2n(ncc1=O)[C@@H](C(c1ccc(F)cc1)c1ccc(F)cc1)Cn1ccnc1-2 [Example 87, (S)-6-(bis(4-fluorophenyl)methyl)-10-oxo-5,6-dihydro-10H-imidazo[2′,1′:3,4]pyrazino[1,2-b]pyridazin-11-yl 3-methylbutanoate] | 0.043 | 0.027 | 0.021
4 | O=c1cnn2c(c1O)-c1nccn1CC2C(c1cccc(Cl)c1)c1cccc(Cl)c1 (stereo not shown) [Example 11, 6-(bis(3-chlorophenyl)methyl)-11-hydroxy-5H-imidazo[2′,1′:3,4]pyrazino[1,2-b]pyridazin-10(6H)-one] | 0.09 | 0.16 | 0.08
5 | O=C(c1cnc2n1C[C@H](C(c1ccccc1)c1ccccc1)n1ccc(=O)c(O)c1-2)N1CCCC1 [Example 72, (S)-6-benzhydryl-11-hydroxy-3-(pyrrolidine-1-carbonyl)-5,6-dihydro-10H-imidazo[1,2-a]pyrido[2,1-c]pyrazin-10-one] | 5.5 | 3 | 1.7
6 | O=c1ccn2c(c1O)-c1ncc(-c3cn[nH]c3)n1C[C@@H]2C(c1ccccc1)c1ccccc1 [Example 52, (S)-6-benzhydryl-11-hydroxy-3-(1H-pyrazol-4-yl)-5,6-dihydro-10H-imidazo[1,2-a]pyrido[2,1-c]pyrazin-10-one] | 0.97 | 5.1 | 8.3
7 | Cc1ccccc1[C@H](c1ccc(F)cc1)[C@H]1Cn2c(CO)cnc2-c2c(O)c(=O)cnn21 [Example 51, (S)-6-((S)-(4-fluorophenyl)(o-tolyl)methyl)-11-hydroxy-3-(hydroxymethyl)-5,6-dihydro-10H-imidazo[2′,1′:3,4]pyrazino[1,2-b]pyridazin-10-one] | 0.16 | 0.23 | 0.09
8 | COC(=O)OCOc1c2n(ncc1=O)[C@@H](C(c1ccc(F)cc1)c1ccc(F)cc1)Cn1ccnc1-2 [Example 88, (S)-((6-(bis(4-fluorophenyl)methyl)-10-oxo-5,6-dihydro-10H-imidazo[2′,1′:3,4]pyrazino[1,2-b]pyridazin-11-yl)oxy)methyl methyl Carbonate] | 0.089 | 0.032 | 0.042
9 | O=c1ccn2c(c1O)-c1nccn1CN2C(c1ccccc1)c1ccccc1 [Example 6, 6-benzhydryl-11-hydroxy-5H-imidazo[1,2-d]pyrido[2,1-f][1,2,4]triazin-10(6H)-one] | 0.1 | 0.15 | 0.19
10 | O=c1cnn2c(c1O)-c1nccn1C[C@@H]2[C@@H](c1ccc(F)cc1)c1ccc(F)c(F)c1 [Example 25, (S)-6-((S)-(3,4-difluorophenyl)(4-fluorophenyl)methyl)-11-hydroxy-5H-imidazo[2′,1′:3,4]pyrazino[1,2-b]pyridazin-10(6H)-one] | 0.1 | 0.062 | 0.056
11 | O=c1ccn2c(c1O)-c1ncsc1CN2C(c1ccccc1)c1ccccc1 [Example 81, 5-benzhydryl-10-hydroxy-4,5-dihydro-9H-pyrido[1,2-b]thiazolo[4,5-d]pyridazin-9-one] | – | 2.2 | 7
12 | Cc1nc2n(c1C)C[C@H](C(c1ccccc1)c1ccccc1)n1ccc(=O)c(O)c1-2 [Example 14, (S)-6-benzhydryl-11-hydroxy-2,3-dimethyl-5H-imidazo[1,2-a]pyrido[2,1-c]pyrazin-10(6H)-one] | 5.5 | 6.7 | 4.2
13 | O=c1cnn2c(c1O)-c1nccn1C[C@@H]2C(c1ccc(F)cc1)c1ccc(F)cc1 [Example 22, (S)-6-(bis(4-fluorophenyl)methyl)-11-hydroxy-5,6-dihydro-10H-imidazo[2′,1′:3,4]pyrazino[1,2-b]pyridazin-10-one] | 0.01 | 0.027 | 0.082
14 | Cc1cccc([C@H](c2ccc(F)cc2)[C@H]2Cn3ccnc3-c3c(O)c(=O)cnn32)c1 [Example 38, (S)-6-((S)-(4-fluorophenyl)(m-tolyl)methyl)-11-hydroxy-5,6-dihydro-10H-imidazo[2′,1′:3,4]pyrazino[1,2-b]pyridazin-10-one] | 0.097 | 0.043 | 0.049
15 | CCc1cnc2n1C[C@H](C(c1ccccc1)c1ccccc1)n1ccc(=O)c(O)c1-2 [Example 9, (S)-6-benzhydryl-3-ethyl-11-hydroxy-5H-imidazo[1,2-a]pyrido[2,1-c]pyrazin-10(6H)-one] | 0.59 | 0.85 | 0.58
16 | O=c1cnn2c(c1O)-c1ncc(CO)n1C[C@@H]2C(c1ccc(F)cc1)c1ccc(F)cc1 [Example 50, (S)-6-(bis(4-fluorophenyl)methyl)-11-hydroxy-3-(hydroxymethyl)-5,6-dihydro-10H-imidazo[2′,1:3,4]pyrazino[1,2-b]pyridazin-10-one] | 0.7 | 0.43 | 0.1
17 | O=c1ccn2c(c1O)-c1nccn1C(C1CC1)N2C1c2ccccc2CSc2ccccc21 (stereo not shown) [Example 76, 5-cyclopropyl-6-(6,11-dihydrodibenzo[b,e]thiepin-11-yl)-11-hydroxy-5,6-dihydro-10H-imidazo[1,2-d]pyrido[2,1-f][1,2,4]triazin-10-one] | 0.67 | 0.43 | 0.16
18 | COCc1cnc2n1C[C@H](C(c1ccccc1)c1ccccc1)n1ccc(=O)c(O)c1-2 [Example 56, (S)-6-benzhydryl-11-hydroxy-3-(methoxymethyl)-5H-imidazo [1,2-a]pyrido[2,1-c]pyrazin-10(6H)-one] | 0.27 | 0.28 | 0.092
19 | O=c1ccn2c(c1O)-c1ncc(C3CC3)n1C[C@@H]2C(c1ccccc1)c1ccccc1 [Example 8, (S)-6-benzhydryl-3-cyclopropyl-11-hydroxy-5H-imidazo[1,2-a]pyrido[2,1-c]pyrazin-10(6H)-one] | 0.53 | 0.49 | 0.15
20 | O=c1ccn2c(c1O)-c1ncc(CN3CCSCC3)n1C[C@@H]2C(c1ccccc1)c1ccccc1 [Example 62, (S)-6-benzhydryl-11-hydroxy-3-(thiomorpholinomethyl)-5,6-dihydro-10H-imidazo[1,2-a]pyrido[2,1-c]pyrazin-10-one] | 1.5 | 1.9 | 0.64
21 | O=c1ccn2c(c1O)-c1ncc(C(F)F)n1C[C@@H]2C(c1ccccc1)c1ccccc1 [Example 57, (S)-6-benzhydryl-3-(difluoromethyl)-11-hydroxy-5H-imidazo[1,2-a]pyrido[2,1-c]pyrazin-10(6H)-one] | 0.58 | 0.22 | 0.18
22 | C[C@@H](NCc1cnc2n1C[C@H](C(c1ccccc1)c1ccccc1)n1ccc(=O)c(O)c1-2)C(F)(F)F [Example 66, (S)-6-benzhydryl-11-hydroxy-3-((((R)-1,1,1-trifluoropropan-2-yl)amino)methyl)-5,6-dihydro-10H-imidazo[1,2-a]pyrido[2,1-c]pyrazin-10-one] | 0.63 | 0.72 | 0.31
23 | O=c1cnn2c(c1O)-c1nccn1C[C@@H]2[C@@H](c1ccc(F)cc1)c1cccc(Cl)c1 [Example 31, (S)-6-((S)-(3-chlorophenyl)(4-fluorophenyl)methyl)-11-hydroxy-5,6-dihydro-10H-imidazo[2′,1′:3,4]pyrazino[1,2-b]pyridazin-10-one] | 0.064 | 0.034 | 0.037
24 | N#Cc1cccc([C@H](c2ccc(F)cc2)[C@H]2Cn3ccnc3-c3c(O)c(=O)cnn32)c1 [Example 43, 3-((S)-(4-fluorophenyl)((S)-11-hydroxy-10-oxo-5,6-dihydro-10H-imidazo[2′,1′:3,4]pyrazino[1,2-b]pyridazin-6-yl)methyl)benzonitrile] | 0.17 | 0.14 | 0.039
25 | CS(=O)(=O)c1cccc([C@H](c2ccc(F)cc2)[C@H]2Cn3ccnc3-c3c(O)c(=O)cnn32)c1 [Example 42, (S)-6-((S)-(4-fluorophenyl)(3-(methylsulfonyl)phenyl)methyl)-11-hydroxy-5,6-dihydro-10H-imidazo[2′,1′:3,4]pyrazino[1,2-b]pyridazin-10-one] | 3.8 | 3.6 | 2.8
26 | CC(O)c1cnc2n1C[C@H](C(c1ccccc1)c1ccccc1)n1ccc(=O)c(O)c1-2 (stereo partly drawn) [Example 55, (6S)-6-benzhydryl-11-hydroxy-3-(1-hydroxyethyl)-5H-imidazo [1,2-a]pyrido[2,1-c]pyrazin-10(6H)-one] | 6.6 | 2.6 | 1.7
27 | O=c1cnn2c(c1O)-c1nccn1CC2C(c1ccc(Cl)cc1)c1ccc(Cl)cc1 (stereo not shown) [Example 10, 6-(bis(4-chlorophenyl)methyl)-11-hydroxy-5H-imidazo[2′,1′:3,4]pyrazino[1,2-b]pyridazin-10(6H)-one] | 0.82 | 0.29 | 0.32
28 | O=c1ccn2c(c1O)-c1nccn1C(C1CC1)N2C(c1ccccc1)c1ccccc1 (stereo not shown) [Example 73, 6-benzhydryl-5-cyclopropyl-11-hydroxy-5,6-dihydro-10H-imidazo[1,2-d]pyrido[2,1-f][1,2,4]triazin-10-one] | – | 0.39 | 0.17
